Laboratory results as given in publication PMC6384738, “Structure-Function Studies of Polymyxin B Lipononapeptides” (Molecules, 2019).
≈ marks a conversion by molar mass, not a printed value. Where a SMILES comes first, the peptide text is derived from it. Bridges are numbered along the chain shown (N, C = ends). [ ]: non-standard residue; d: D form. The star is where a group is joined. Hexanoyl(6-Ph) = O=C(CCCCCc1ccccc1)*; Octanoyl = CCCCCCCC(=O)*; Orn = NCCC[C@H](N)C(=O)O; Dab = NCC[C@H](N)C(=O)O

Columns and labels:
P. aeruginosa ATTC 27853 = experiment: microbe, parasite or virus in culture; settings: ATTC 27853, 18 h
Protocol: (§1) All compounds synthesised in this study were assessed for their minimum inhibitory concentrations (MIC, mg/L) by broth microdilution assay against five antibiotic-sensitive and resistant ATCC reference strains covering the Gram-negative ESKAPE pathogens (Escherichia coli, Klebsiella pneumoniae, A. baumannii, and P. aeruginosa) (Table 1, Table 2 and Table 3). Staphylococcus aureus was also included as a representative Gram-positive bacterial strain. […] Polymyxin B 1, colistin 2, vancomycin and gentamicin were used as positive inhibitor comparator compounds. Compounds were counter-screened against human proximal tubular epithelial cells (HK-2), using LDH release as a general indicator of cellular toxicity.

A. baumannii ATCC 19606 = experiment: microbe, parasite or virus in culture; settings: ATCC 19606, 18 h
Protocol: as §1

[1] = test system: K. pneumoniae ATCC 700603; experiment: microbe, parasite or virus in culture; settings: ATCC 700603, 18 h
Protocol: as §1

E. coli ATCC 25922 = experiment: microbe, parasite or virus in culture; settings: ATCC 25922, 18 h
Protocol: as §1

K. pneumoniae BAA 2146 = experiment: microbe, parasite or virus in culture; settings: BAA 2146, 18 h
Protocol: as §1

S. aureus ATCC 25923 = experiment: microbe, parasite or virus in culture; settings: ATCC 25923, 18 h
Protocol: as §1

K. pneumoniae ATCC 13833 = experiment: microbe, parasite or virus in culture; settings: ATCC 13833, 18 h
Protocol: as §1

in vitro = settings: human
Protocol: as §1
Cytotoxicity to human kidney proximal tubular epithelial cell line, HK-2 (ATCC CRL-2190, sourced from ATCC; Manassas, VA, USA) was determined using the LDH assay as previously described. In brief, HK-2 cells were seeded as 2000 cells/well in black-walled clear bottom 384-well tissue culture treated plates (Corning, catalogue No. 3712) in DMEM/F12 medium (Gibco® 10565-042) containing 10% of Fetal Bovine Serum (FBS, Gibco® 10099-141) and incubated for 24 h at 37 °C, 5% CO2. Compounds were then added into each well with a concentration series from 300 µM to 2.3 µM in 2-fold dilutions. Colistin and polymyxin B were used as controls and tested at a final concentration range of 1 mM to 7.8 µM. The cells were incubated with the compounds for 24 h at 37 °C, 5% CO2. After the incubation, 5 µL of culture medium was added to 45 µL of LDH assay buffer (Biovision, K313-500) and incubated for 30 min at room temperature. The absorbance (ABS) was then read at 450 nm using a Polar Star Omega plate reader. The data was analysed by Prism 6 software (GraphPad Software, La Jolla, CA, USA). Results were calculated using the following equation: cytotoxicity %= (ABSsamples − ABSuntreated/ABS1%Triton X-100 − ABSuntreated) × 100.

SMILES | MIC P. aeruginosa ATTC 27853 (P. aeruginosa ATTC 27853) [µg/mL] | MIC A. baumannii ATCC 19606 (A. baumannii ATCC 19606) [µg/mL] | MIC K. pneumoniae ATCC 700603 [1] [µg/mL] | MIC E. coli ATCC 25922 (E. coli ATCC 25922) [µg/mL] | MIC K. pneumoniae BAA 2146 (K. pneumoniae BAA 2146) [µg/mL] | MIC S. aureus ATCC 25923 (S. aureus ATCC 25923) [µg/mL] | MIC K. pneumoniae ATCC 13833 (K. pneumoniae ATCC 13833) [µg/mL] | CC50 at 24 h (in vitro) [µM]
CC(C)C[C@@H]1NC(=O)[C@@H](Cc2ccccc2)NC(=O)[C@H](CCN)NC(=O)[C@@H](NC(=O)[C@H](CCN)NC(=O)[C@@H](NC(=O)CCCCCc2ccccc2)[C@@H](C)O)CCNC(=O)[C@H]([C@@H](C)O)NC(=O)[C@H](CCN)NC(=O)[C@H](CCN)NC1=O [Compound 13] ({Hexanoyl(6-Ph)}-T[Dab][Dab][Dab][dF]L[Dab][Dab]T; lactam 3-C) | 1 (≈ 0.879 µM) | 8 (≈ 7.03 µM) | 2 (≈ 1.76 µM) | 1 (≈ 0.879 µM) | 1 (≈ 0.879 µM) | >32 | 8 (≈ 7.03 µM) | 189
CCCCCCCC(=O)N[C@H](C(=O)N[C@@H](Cc1c[nH]cn1)C(=O)N[C@H]1CCNC(=O)[C@H]([C@@H](C)O)NC(=O)[C@H](CCN)NC(=O)[C@H](CCN)NC(=O)[C@H](CC(C)C)NC(=O)[C@@H](Cc2ccccc2)NC(=O)[C@H](CCN)NC1=O)[C@@H](C)O [Compound 47] (Octanoyl-TH[Dab][Dab][dF]L[Dab][Dab]T; lactam 3-C) | 16 (≈ 14.2 µM) | >32 | 32 (≈ 28.4 µM) | 4 (≈ 3.55 µM) | 16 (≈ 14.2 µM) | >32 | >32 | > 300
CCCCCCCC(=O)N[C@H](C(=O)N[C@@H](CCCNC(=N)N)C(=O)N[C@H]1CCNC(=O)[C@H]([C@@H](C)O)NC(=O)[C@H](CCN)NC(=O)[C@H](CCN)NC(=O)[C@H](CC(C)C)NC(=O)[C@@H](Cc2ccccc2)NC(=O)[C@H](CCN)NC1=O)[C@@H](C)O [Compound 45] (Octanoyl-TR[Dab][Dab][dF]L[Dab][Dab]T; lactam 3-C) | 4 (≈ 3.49 µM) | 32 (≈ 27.9 µM) | 8 (≈ 6.98 µM) | 2 (≈ 1.75 µM) | 16 (≈ 14 µM) | >32 | >32 | > 300

More lines, main results first:

MIC P. aeruginosa ATTC 27853 (P. aeruginosa ATTC 27853) [µg/mL] | MIC A. baumannii ATCC 19606 (A. baumannii ATCC 19606) [µg/mL] | MIC K. pneumoniae ATCC 700603 [1] [µg/mL] | MIC E. coli ATCC 25922 (E. coli ATCC 25922) [µg/mL] | MIC K. pneumoniae BAA 2146 (K. pneumoniae BAA 2146) [µg/mL] | MIC S. aureus ATCC 25923 (S. aureus ATCC 25923) [µg/mL] | MIC K. pneumoniae ATCC 13833 (K. pneumoniae ATCC 13833) [µg/mL] | SMILES | CC50 at 24 h (in vitro) [µM]
2 (≈ 1.81 µM) | >32 | 16 (≈ 14.5 µM) | 2 (≈ 1.81 µM) | 16 (≈ 14.5 µM) | >32 | 32 (≈ 29 µM) | CCCCCCCC(=O)N[C@H](C(=O)N[C@@H](CCN)C(=O)N[C@H]1CCCNC(=O)[C@H]([C@@H](C)O)NC(=O)[C@H](CCN)NC(=O)[C@H](CCN)NC(=O)[C@H](CC(C)C)NC(=O)[C@@H](Cc2ccccc2)NC(=O)[C@H](CCN)NC1=O)[C@@H](C)O [Compound 17] (Octanoyl-T[Dab][Orn][Dab][dF]L[Dab][Dab]T; lactam 3-C) | 88
4 (≈ 3.58 µM) | 32 (≈ 28.6 µM) | 16 (≈ 14.3 µM) | 4 (≈ 3.58 µM) | 8 (≈ 7.16 µM) | >32 | 16 (≈ 14.3 µM) | CCCCCCCC(=O)N[C@H](C(=O)N[C@@H](CCCCN)C(=O)N[C@H]1CCNC(=O)[C@H]([C@@H](C)O)NC(=O)[C@H](CCN)NC(=O)[C@H](CCN)NC(=O)[C@H](CC(C)C)NC(=O)[C@@H](Cc2ccccc2)NC(=O)[C@H](CCN)NC1=O)[C@@H](C)O [Compound 42] (Octanoyl-TK[Dab][Dab][dF]L[Dab][Dab]T; lactam 3-C) | > 300
2 (≈ 1.81 µM) | 16 (≈ 14.5 µM) | 4 (≈ 3.63 µM) | 2 (≈ 1.81 µM) | 4 (≈ 3.63 µM) | >32 | 8 (≈ 7.25 µM) | CCCCCCCC(=O)N[C@H](C(=O)N[C@@H](CCCN)C(=O)N[C@H]1CCNC(=O)[C@H]([C@@H](C)O)NC(=O)[C@H](CCN)NC(=O)[C@H](CCN)NC(=O)[C@H](CC(C)C)NC(=O)[C@@H](Cc2ccccc2)NC(=O)[C@H](CCN)NC1=O)[C@@H](C)O [Compound 40] (Octanoyl-T[Orn][Dab][Dab][dF]L[Dab][Dab]T; lactam 3-C) | > 300
